Each molecule was assayed against T1, Calpain-2 catalytic subunit (Ovis aries, UniProt A8IF71) (assay: BODIPY Fluorescent Microplate Assay). Conditions: pH 7.5; 25 °C.
T1 sequence (A8IF71 whole entry): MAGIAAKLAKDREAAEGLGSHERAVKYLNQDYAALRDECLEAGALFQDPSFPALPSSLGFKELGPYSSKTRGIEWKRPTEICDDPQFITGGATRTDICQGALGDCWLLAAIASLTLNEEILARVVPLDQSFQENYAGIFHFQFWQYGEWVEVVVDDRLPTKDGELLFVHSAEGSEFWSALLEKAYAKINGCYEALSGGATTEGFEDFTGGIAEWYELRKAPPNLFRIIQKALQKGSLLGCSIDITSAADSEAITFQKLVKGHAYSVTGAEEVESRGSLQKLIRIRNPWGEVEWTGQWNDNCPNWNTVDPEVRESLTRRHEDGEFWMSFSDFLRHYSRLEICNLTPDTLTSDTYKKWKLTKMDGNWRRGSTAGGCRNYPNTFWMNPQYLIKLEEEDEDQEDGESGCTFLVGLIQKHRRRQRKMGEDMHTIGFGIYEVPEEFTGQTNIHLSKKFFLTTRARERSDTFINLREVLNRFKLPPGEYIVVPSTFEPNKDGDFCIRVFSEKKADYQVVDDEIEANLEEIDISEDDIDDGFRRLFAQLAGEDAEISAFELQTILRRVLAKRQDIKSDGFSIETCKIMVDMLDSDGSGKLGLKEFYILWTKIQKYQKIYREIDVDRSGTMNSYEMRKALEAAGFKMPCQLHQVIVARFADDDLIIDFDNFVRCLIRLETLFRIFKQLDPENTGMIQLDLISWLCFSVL
Procedure: Calpain inhibition assays were performed in 96-well black plates. The reaction was initiated by the addition of substrate solution. The progress of the reaction was followed for 10 min in a (BMG) Fluorostar with excitation at 485 nm and emission at 530 nm. The percentage inhibition was determined as […]. The reported IC50 values are the average of triplicate determinations.

| IC50 [nM] | Structure (SMILES) |
| --- | --- |
| 100 | CC(C)C[C@@H](C=O)NC(=O)[C@@H](NC(=O)c1cccs1)C(C)C [(2S)-3-methyl-N-[(2S)-4-methyl-1-oxopentan-2-yl]-2-(thiophen-2-ylformamido)butanamide] |
| 100 | CC(C)C[C@@H](C=O)NC(=O)[C@@H](NC(=O)c1cc(C=O)c[nH]1)C(C)C [(2S)-2-[(4-formyl-1H-pyrrol-2-yl)formamido]-3-methyl-N-[(2S)-4-methyl-1-oxopentan-2-yl]butanamide] |
| 100 | CC(C)C[C@@H](C=O)NC(=O)[C@@H](NC(=O)c1ccc(C=O)o1)C(C)C [(2S)-2-[(5-formylfuran-2-yl)formamido]-3-methyl-N-[(2S)-4-methyl-1-oxopentan-2-yl]butanamide] |
